According to patent US7462600B2, “Macrolides” (Pfizer Inc, priority 2004, dated 2008):
≈ marks a conversion by molar mass, not a printed value. Like-named read-outs stand apart in the source and are kept apart here.

Tests used:
Format in all cases: cell-based
[1] = test system: Streptococcus pyogenes 1079; assay: MIC, microtiter broth dilution (NCCLS M100-S14), S. pyogenes 1079 (ermB)
In short: (§1)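 Stock solutions of 40 mg/ml in DMSO were used. MIC values came from microtiter-tray broth dilution following NCCLS M100-S14 guidelines.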

[2] = test system: Streptococcus pneumoniae 1095; settings: microtiter broth dilution
In short: as §1

[3] = test system: Streptococcus pneumoniae 1175; settings: microtiter broth dilution
In short: as §1

[4] = test system: Streptococcus pneumoniae 1016; assay: MIC, microtiter broth dilution (NCCLS M100-S14), S. pneumoniae 1016 (susceptible)
In short: as §1

[5] = test system: Haemophilus influenzae 1218; assay: MIC, microtiter broth dilution (NCCLS M100-S14), H. influenzae 1218 (susceptible)
In short: as §1

[6] = S. pneumoniae 1016 (susceptible)
[7] = H. influenzae 1218 (susceptible)

Compound	MIC S. pyogenes 1079 ([1]; S. pyogenes 1079 (ermB)) [mg/L]	MIC S. pneumo. 1095 ([2]; S. pneumoniae 1095 (ermB)) [mg/L]	MIC S. pneumo. 1175 ([3]; S. pneumoniae 1175 (mefA)) [mg/L]	MIC S. pneumo. 1016 [4, 6] [mg/L]	MIC H. influenzae 1218 [5, 7] [mg/L]	MIC S. pyogenes 1079 ([1]; Streptococcus pyogenes 1079) [mg/L]	MIC S. pneumo. 1095 ([2]; Streptococcus pneumoniae 1095) [mg/L]	MIC S. pneumo. 1175 ([3]; Streptococcus pneumoniae 1175) [mg/L]	MIC S. pneumo. 1016 ([4]; Streptococcus pneumoniae 1016) [mg/L]	MIC H. influenzae 1218 ([5]; Haemophilus influenzae 1218) [mg/L]
CCC1OC(=O)C(C)C(=O)C(C)C(OC2OC(C)CC(N(C)C)C2O)C(C)(OC)CC(C)C(=O)C(C)C2N(CC3CCN(C(=O)c4cncc5ccccc45)C3)C(=O)OC12C (centres unmarked) [13.17]	>64.00	>64.00	0.25 (≈ 0.294 µM)	<0.06	4 (≈ 4.7 µM)	–	–	–	–	–
CCC1OC(=O)C(C)C(=O)C(C)C(OC2OC(C)CC(N(C)C)C2O)C(C)(OC)CC(C)C(=O)C(C)C2N(C3CN(C(C)c4ccnc5cccnc45)C3)C(=O)OC12C (stereo not drawn) [Example 1.38, 3-descladinosyl-11,12-dideoxy-6-O-methyl-3-oxo-12,11-(oxycarbonyl-(1-(1S-(1,5-naphthyridin-4-yl)-ethyl)-azetidin-3-yl)-imino)erythromycin A]	–	–	–	–	–	4 (≈ 4.85 µM)	<0.06	0.25 (≈ 0.303 µM)	<0.06	1 (≈ 1.21 µM)
CCC1OC(=O)C(C)C(=O)C(C)C(OC2OC(C)CC(N(C)C)C2O)C(C)(OC)CC(C)C(=O)C(C)C2N(CC3CN(Cc4ccn(-c5ccccn5)n4)C3)C(=O)OC12C.O=CO (centres unmarked) [4.31]	–	–	–	–	–	>64.00	32	<0.06	<0.06	0.5
CCC1OC(=O)C(C)C(=O)C(C)C(OC2OC(C)CC(N(C)C)C2O)C(C)(OC)CC(C)C(=O)C(C)C2N(C3CN(S(=O)(=O)c4ccc(-c5ccn[nH]5)cc4)C3)C(=O)OC12C (centres unmarked) [Example 3.39, 3-descladinosyl-11,12-dideoxy-6-O-methyl-3-oxo-12,11-(oxycarbonyl-(1-(4-(1H-pyrazol-5-yl)benzenesulfonyl)-azetidin-3-yl)-imino)-erythromycin A]	–	–	–	–	–	0.25 (≈ 0.286 µM)	<0.06	<0.06	<0.06	0.5 (≈ 0.572 µM)
CCC1OC(=O)C(C)C(=O)C(C)C(OC2OC(C)CC(N(C)C)C2O)C(C)(OC)CC(C)C(=O)C(C)C2N(CC3CCCN3C(=O)c3cc4ncccc4[nH]3)C(=O)OC12C (centres unmarked) [10.42]	64 (≈ 76.2 µM)	<0.06	<0.06	<0.06	0.5 (≈ 0.595 µM)	–	–	–	–	–
CC[C@H]1OC(=O)[C@H](C)[C@@H](OC(=O)N2CCCC2C)[C@H](C)[C@@H](O[C@@H]2O[C@H](C)C[C@H](N(C)C)[C@H]2O)[C@](C)(OC)C[C@@H](C)C(=O)[C@H](C)[C@H]2N(CC3CN(Cc4c[nH]c5ncccc45)C3)C(=O)O[C@]12C (some centres unmarked) [Example 5.03, 3-descladinosyl-11,12-dideoxy-6-O-methyl-12,11-(oxycarbonyl-(1-((1H-pyrrolo[2,3-b]pyridin-3-yl)-methyl)-(azetidin-3-yl)-methyl)-imino)-3-((2-methylpyrrolidine)-1-carbonyl)-erythromycin A]	–	–	–	–	–	0.5 (≈ 0.54 µM)	<0.06	<0.06	<0.06	2 (≈ 2.16 µM)
CCC1OC(=O)C(C)C(=O)C(C)C(OC2OC(C)CC(N(C)C)C2O)C(C)(OC)CC(C)C(=O)C(C)C2N(C3CN(C(=O)c4cncc5ccccc45)C3)C(=O)OC12C (centres unmarked) [Example 2.01]	–	–	–	–	–	>64.00	32 (≈ 38.9 µM)	0.25 (≈ 0.304 µM)	<0.06	4 (≈ 4.86 µM)
CCC1OC(=O)C(C)C(=O)C(C)C(OC2OC(C)CC(N(C)C)C2O)C(C)(OC)CC(C)C(=O)C(C)C2N(C3CN(S(=O)(=O)c4cccc5cnccc45)C3)C(=O)OC12C (centres unmarked) [Example 3.04, 3-descladinosyl-11,12-dideoxy-6-O-methyl-3-oxo-12,11-(oxycarbonyl-(1-(isoquinoline-5-sulfonyl)-azetidin-3-yl)-imino)-erythromycin A]	–	–	–	–	–	0.12 (≈ 0.14 µM)	<0.06	<0.06	<0.06	0.25 (≈ 0.291 µM)
CCC1OC(=O)C(C)C(=O)C(C)C(OC2OC(C)CC(N(C)C)C2O)C(C)(OC)CC(C)C(=O)C(C)C2N(C3CN(S(=O)(=O)c4cccc5cnncc45)C3)C(=O)OC12C (centres unmarked) [Example 3.92, 3-descladinosyl-11,12-dideoxy-6-O-methyl-3-oxo-12,11-(oxycarbonyl-(1-(phthalazine-5-sulfonyl)-azetidin-3-yl)-imino)-erythromycin A]	–	–	–	–	–	4 (≈ 4.65 µM)	<0.06	<0.06	<0.06	1 (≈ 1.16 µM)
CCC1OC(=O)C(C)C(=O)C(C)C(OC2OC(C)CC(N(C)C)C2O)C(C)(OC)CC(C)C(=O)C(C)C2N(C3CN(S(=O)(=O)c4ccc(Oc5ccccn5)cc4)C3)C(=O)OC12C (centres unmarked) [Example 3.34, 4-(pyridin-2-yloxy)benzenesulfonyl]	–	–	–	–	–	64 (≈ 71 µM)	1 (≈ 1.11 µM)	0.12 (≈ 0.133 µM)	<0.06	16 (≈ 17.8 µM)
CC[C@H]1OC(=O)[C@H](C)C(=O)[C@H](C)[C@@H](O[C@@H]2O[C@H](C)C[C@H](N(C)C)[C@H]2O)[C@](C)(OC)C[C@@H](C)C(=O)[C@H](C)[C@H]2N(CC3(O)CN(C(=O)c4cccc5ncccc45)C3)C(=O)O[C@]12C [7.19]	>64.00	0.12 (≈ 0.141 µM)	0.25 (≈ 0.293 µM)	<0.06	1 (≈ 1.17 µM)	–	–	–	–	–
CCC1OC(=O)C(C)C(=O)C(C)C(OC2OC(C)CC(N(C)C)C2O)C(C)(OC)CC(C)C(=O)C(C)C2N(C3CN(S(=O)(=O)c4cccc(C#N)c4)C3)C(=O)OC12C (centres unmarked) [Example 3.10, 3-descladinosyl-11,12-dideoxy-6-O-methyl-3-oxo-12,11-(oxycarbonyl-(1-(3-cyanobenzenesulfonyl)-azetidin-3-yl)-imino)-erythromycin A]	–	–	–	–	–	4 (≈ 4.8 µM)	<0.06	<0.06	<0.06	0.25 (≈ 0.3 µM)
CCC1OC(=O)C(C)C(=O)C(C)C(OC2OC(C)CC(N(C)C)C2O)C(C)(OC)CC(C)C(=O)C(C)C2N(C3CN(S(=O)(=O)c4ccc(OC)c5nccnc45)C3)C(=O)OC12C (centres unmarked) [Example 3.112, 3-descladinosyl-11,12-dideoxy-6-O-methyl-3-oxo-12,11-(oxycarbonyl-(1-(8-methoxyquinoxaline-5-sulfonyl)-azetidin-3-yl)-imino)erythromycin A]	–	–	–	–	–	0.125 (≈ 0.14 µM)	<0.063	0.25 (≈ 0.281 µM)	<0.063	2 (≈ 2.25 µM)
CC[C@H]1OC(=O)[C@H](C)C(=O)[C@H](C)[C@@H](O[C@@H]2O[C@H](C)C[C@H](N(C)C)[C@H]2O)[C@](C)(OC)C[C@@H](C)C(=O)[C@H](C)[C@H]2N(CC3(C)CN(Cc4c[nH]c5ccc(F)cc45)C3)C(=O)O[C@]12C [6.08]	–	–	–	–	–	16 (≈ 19 µM)	<0.06	0.25 (≈ 0.297 µM)	<0.06	0.5 (≈ 0.593 µM)
CCC1OC(=O)C(C)C(=O)C(C)C(OC2OC(C)CC(N(C)C)C2O)C(C)(OC)CC(C)C(=O)C(C)C2N(C3CN(S(=O)(=O)c4ccc(F)c(-c5cnco5)c4)C3)C(=O)OC12C (centres unmarked) [Example 3.88, 3-descladinosyl-11,12-dideoxy-6-O-methyl-3-oxo-12,11-(oxycarbonyl-(1-(4-fluoro-3-(oxazol-5-yl)benzenesulfonyl)-azetidin-3-yl)-imino)-erythromycin A]	–	–	–	–	–	8 (≈ 8.96 µM)	<0.06	<0.06	<0.06	2 (≈ 2.24 µM)
3-descladinosyl-11,12-dideoxy-6-O-methyl-3-oxo-12,11-(oxycarbonyl-(1-((1H-benzo[d]imidazol-4-yl)-methyl)-(R)-pyrrolidin-3-yl)-imino)-erythromycin A [Example 9.06]	4	<0.06	<0.06	<0.06	0.25	–	–	–	–	–
CCC1OC(=O)C(C)C(=O)C(C)C(OC2OC(C)CC(N(C)C)C2O)C(C)(OC)CC(C)C(=O)C(C)C2N(CC3CCN(C(=O)c4cccc5cccnc45)C3)C(=O)OC12C (centres unmarked) [13.11]	>64.00	16 (≈ 18.8 µM)	4 (≈ 4.7 µM)	<0.06	4 (≈ 4.7 µM)	–	–	–	–	–
CCC1OC(=O)C(C)C(=O)C(C)C(OC2OC(C)CC(N(C)C)C2O)C(C)(OC)CC(C)C(=O)C(C)C2N(C3CN(C(=O)c4cccc(-n5nc(C)cc5C)c4)C3)C(=O)OC12C (centres unmarked) [Example 2.17, 3-(3,5-dimethyl-1H-pyrazol-1-yl)benzoyl]	–	–	–	–	–	>64.00	>64.00	0.25 (≈ 0.289 µM)	<0.06	>64.00
CCC1OC(=O)C(C)C(=O)C(C)C(OC2OC(C)CC(N(C)C)C2O)C(C)(OC)CC(C)C(=O)C(C)C2N(CC3(O)CCN(Cc4c[nH]c5ncccc45)CC3)C(=O)OC12C (centres unmarked) [Example 14.01, (1H-pyrrolo[2,3-b]pyridin-3-yl)methyl]	>64.00	32 (≈ 37.4 µM)	1 (≈ 1.17 µM)	<0.06	4 (≈ 4.67 µM)	–	–	–	–	–
